Assay results taken from EP0968998A1, “Cosmetic compositions, ceramide analogues with anti-elastase activity and process for their preparation” (ELF ATOCHEM S.A., priority 1998, dated 2000).

Columns and labels:
stratum corneum [1] = assay: Skin hydration: capacitance measurement (Corneometer Courage+Khazaka CM 200), hydration index, cream applied to forearm; assay type: in vivo, volontaires sains ayant une peau sèche; conditions: cream with 0,5 % (ex. 7, témoins), 1 % (ex. 4, 8), 5 % (ex. 6)
Excerpt: (§1) Les exemples qui suivent permettent d'illustrer l'invention. […] Les valeurs sont exprimées en nombre d'onde par centimètre. - Résonance magnétique nucléaire (RMN) Les spectres sont réalisés au moyen d'un appareil BRUCKER DRX 500, à 500 MHz (^1H) et 125 MHz (^13C) dans le DMSO-d6. La calibration de l'appareil est effectuée au moyen de DMSO. Les déplacements chimiques sont exprimés en ppm. […] On utilise le N-succinyl-(Ala)3-p-nitroanilide en solution dans le tétrahydrofurane et une solution d'élastase à 100 mg/ml dans un mélange de glycérol et de tampon acétate de sodium (50/50; v/v), pH5. L'activité de l'enzyme est mesurée à 37°C dans 100 mM de tampon Tris-HCI, pH8 contenant 0,01 % de Triton X-100 (volume/volume) et 0,02 % d'azide de sodium (poids/volume). Le céramide à tester, solubilisé dans le tétrahydrofurane (concentration en THF = 0,5 % en volume) est préincubé en présence de l'enzyme (0,05 mg/ml) dans le tampon pendant 5 minutes à 37°C. On ajoute le N-succinyl-(Ala)3-p-nitroanilide (concentration finale : 250 µM) et on mesure la libération de la p-nitroaniline dans une cuve en quartz par spectrophotométrie à 410 nm. La capacité inhibitrice du céramide est exprimée en pourcentage d'inhibition (% I) selon la relation : %I = (1 -(Vi)/(Vo))×100 [formula] dans laquelle Vi et Vo sont les vitesses d'apparition de la p-nitroaniline en présence et en absence d'inhibiteur respectivement. - Mesure de l'amélioration de la barrière cutanée a) mesure de la Perte Insensible en Eau (PIE) La mesure de la PIE permet de quantifier la très faible quantité d'eau qui diffuse passivement à travers le stratum corneum. Ce paramètre représente un très bon index de la fonction barrière du stratum corneum. Cette méthode est surtout utilisée pour contrôler l'efficacité de formules cosmétiques qui, contenant certains types de lipides sont capables de diminuer la PIE et, en conséquence, d'empêcher la déshydratation du stratum corneum. La sonde est laissée en contact de la peau pendant 2 minutes environ de façon à atteindre une position d'équilibre. PIE = D'(dP)/(dx)(gradient de pression de vapeur) [formula] Les valeurs sont exprimées en g/m^2/heure et permettent de calculer un delta de PIE = PIE (peau traitée) - PIE (peau témoin). L'appareil utilisé est un Evaporimètre EPI de Servomed. Les mesures sont effectuées sur deux groupes de 15 volontaires sains ayant une peau sèche, avant l'application du produit (t=0) et après l'application (t=0,5 heure, 1 heure, 3 heures et 6 heures) sur la face interne des deux avant-bras. L'analogue de céramide selon l'invention ou le céramide témoin est incorporé dans une crème ayant la composition suivante (en % en poids) :
(§2) La teneur en analogue de céramide dans la crème est égale à 0,5 % (exemple 7), 1 % (exemples 4 et 8) et 5 % (exemple 6), et celle des céramides témoins (a) et (b) est égale à 0,5 %. La diminution des valeurs de PIE signifie une amélioration de la qualité de la barrière cutanée qui traduit un meilleur pouvoir retentionnel de l'eau au niveau de la couche cornée et donc une meilleure hydratation. b) hydratation cutanée L'eau peut être considérée comme un dipôle électrique capable de conduire l'électricité. Le transport d'électricité dans un champ donné est proportionnel à la quantité d'eau présente dans le stratum corneum. Plus une peau est riche en eau et plus le courant électrique passe rapidement entre 2 électrodes. Il existe donc un lien entre l'hydratation du stratum corneum et les modifications des propriétés électriques. Les mesures de capacitance, liée à la constante diélectrique de la peau, sont réalisées par le Cornéomètre Courage+Khazaka CM 200, dont la sonde présente une surface de contact avec la peau de 49 mm^2; cette sonde est appliquée avec une pression constante sur la surface cutanée à mesurer, et l'indice d'hydratation directement proportionnel au taux hydrique de surface est instantané.

stratum corneum [2] = assay: Skin barrier improvement: transepidermal (insensible) water loss (PIE), Servomed evaporimeter, cream applied to inner forearm; assay type: in vivo, volontaires sains ayant une peau sèche; conditions: cream with 0,5 % (ex. 7, témoins), 1 % (ex. 4, 8), 5 % (ex. 6)
Excerpt: as §1, §2

[3] = t=0 heure (before application, baseline)

CCCCCCCCCCCCCCCCCC(=O)NC(CC)(CO)COC(=O)CCCCCCCCCCCCCCCCC (stereo not shown) [Exemple 4, 1-stéaroyl-2-éthyl-2-stéaroylamino-1,3-propanediol]
Indice d'Hydratation (IH) M±s (stratum corneum [1]; t=0,5 heure after application): 66,87±7,50 | Indice d'Hydratation (IH) M±s (stratum corneum [1]; [3]): 64,69±9,04 | Indice d'Hydratation (IH) M±s (stratum corneum [1]; t=1 heure after application): 65,56±6,96 | Indice d'Hydratation (IH) M±s (stratum corneum [1]; t=3 heures after application): 62,31±7,17 | Indice d'Hydratation (IH) M±s (stratum corneum [1]; t=6 heures after application): 62,91±7,78 | Perte Insensible en Eau (PIE) M±s (stratum corneum [2]; t=0,5 heure after application): 3,89±0,85 g/m^2/heure | Perte Insensible en Eau (PIE) M±s (stratum corneum [2]; [3]): 4,52±0,79 g/m^2/heure | Perte Insensible en Eau (PIE) M±s (stratum corneum [2]; t=1 heure after application): 2,95±1,15 g/m^2/heure | Perte Insensible en Eau (PIE) M±s (stratum corneum [2]; t=3 heures after application): 4,30±0,97 g/m^2/heure | Perte Insensible en Eau (PIE) M±s (stratum corneum [2]; t=6 heures after application): 4,00±1,24 g/m^2/heure
